In the assay the target is Sodium-dependent serotonin transporter (Rattus norvegicus, UniProt P31652). Put plainly: Compound was tested for binding affinity to Serotonin transporter sites in homogenates prepared from rat cortical membranes using [3H]paroxetine as radioligand.

A word on the IC50: it is the concentration that inhibits the measured activity by half.

Sequence of Sodium-dependent serotonin transporter (P31652 whole entry): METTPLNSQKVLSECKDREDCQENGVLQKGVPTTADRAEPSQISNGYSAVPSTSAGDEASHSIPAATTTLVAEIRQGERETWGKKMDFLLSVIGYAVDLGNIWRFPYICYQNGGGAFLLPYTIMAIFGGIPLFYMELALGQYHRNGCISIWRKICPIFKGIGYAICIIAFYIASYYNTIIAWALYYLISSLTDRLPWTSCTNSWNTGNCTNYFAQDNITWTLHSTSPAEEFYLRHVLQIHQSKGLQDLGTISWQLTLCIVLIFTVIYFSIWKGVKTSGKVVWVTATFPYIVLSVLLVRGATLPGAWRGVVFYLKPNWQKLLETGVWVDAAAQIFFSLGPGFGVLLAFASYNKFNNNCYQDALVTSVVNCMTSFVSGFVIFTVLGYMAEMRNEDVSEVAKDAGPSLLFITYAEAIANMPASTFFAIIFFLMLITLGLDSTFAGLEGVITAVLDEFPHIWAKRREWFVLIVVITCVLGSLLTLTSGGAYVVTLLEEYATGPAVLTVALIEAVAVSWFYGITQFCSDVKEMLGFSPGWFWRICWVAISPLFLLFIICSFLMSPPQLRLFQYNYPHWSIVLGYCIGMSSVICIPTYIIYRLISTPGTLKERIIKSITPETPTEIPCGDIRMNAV

Molecule `COC(=O)[C@H]1[C@@H](c2ccc(F)cc2)C[C@H]2CC[C@H]1N2C` yielded an IC50 of 479 nM.

For `COC(=O)[C@@H]1C2CC[C@H](C[C@@H]1c1ccc(I)cc1)N2C`, the IC50 turned out to be 3.78 nM.
